Key:
[1] = molecular target: T1, human dopamine D3 receptors (Homo sapiens, UniProt P35462); test: Dopamine D3 receptor binding, displacement of [125I]-iodosulpride; settings: for Ki: membranes of HEK-293 cells stably expressing human D3, 0.1 nM [125I]-iodosulpride, 25° C., 60 minutes; for Ki(D2)*/Ki(D3)*: selectivity ratio of the receptor binding constants D2 over D3
T1 construct: expressed in transfected cells
Procedure, shortened: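 Displacement of [125I]-iodosulpride at human D3 receptors in pH 7.4 Tris buffer with NaCl, KCl, CaCl2, MgCl2, 0.1% BSA, 10 μM quinolone and 0.1% ascorbic acid, 60 min at 25 °C, in triplicate. Bound label collected by filtration and counted; Ki from nonlinear regression of inhibition curves.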

[2] = molecular target: T2, human dopamine D2L receptors (long isoform) (Homo sapiens, UniProt P14416); test: Dopamine D2L receptor binding, displacement of [125I] iodospiperone; settings: membranes of HEK-293 cells stably expressing human D2L; 0.01 nM [125I] iodospiperone; 25° C., 60 minutes; read-out: Ki(D2)*
T2 construct: expressed in transfected cells
Procedure, shortened: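 Displacement of [125I]iodospiperone from human D2L receptors, triplicates, in 50 mM Tris pH 7.4 with 120 mM NaCl, 5 mM KCl, 2 mM CaCl2, 2 mM MgCl2, 0.1% BSA. Incubated 60 min at 25 °C, then filtered and counted by scintillation. Ki came from iterative nonlinear regression of inhibition curves.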

T2 sequence (P14416 whole entry, canonical isoform): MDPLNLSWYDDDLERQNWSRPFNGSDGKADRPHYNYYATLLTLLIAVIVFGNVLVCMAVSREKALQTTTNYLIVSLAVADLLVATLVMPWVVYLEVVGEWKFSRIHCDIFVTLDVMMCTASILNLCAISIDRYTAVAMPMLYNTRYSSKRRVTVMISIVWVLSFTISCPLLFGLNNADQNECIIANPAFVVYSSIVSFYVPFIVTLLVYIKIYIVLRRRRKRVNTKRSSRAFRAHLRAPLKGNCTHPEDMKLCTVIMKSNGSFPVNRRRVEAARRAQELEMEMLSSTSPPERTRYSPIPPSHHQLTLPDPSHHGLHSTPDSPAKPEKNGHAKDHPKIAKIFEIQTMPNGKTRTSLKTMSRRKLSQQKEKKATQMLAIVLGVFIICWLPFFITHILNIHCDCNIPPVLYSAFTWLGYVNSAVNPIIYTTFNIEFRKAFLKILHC
T1 sequence (P35462 whole entry): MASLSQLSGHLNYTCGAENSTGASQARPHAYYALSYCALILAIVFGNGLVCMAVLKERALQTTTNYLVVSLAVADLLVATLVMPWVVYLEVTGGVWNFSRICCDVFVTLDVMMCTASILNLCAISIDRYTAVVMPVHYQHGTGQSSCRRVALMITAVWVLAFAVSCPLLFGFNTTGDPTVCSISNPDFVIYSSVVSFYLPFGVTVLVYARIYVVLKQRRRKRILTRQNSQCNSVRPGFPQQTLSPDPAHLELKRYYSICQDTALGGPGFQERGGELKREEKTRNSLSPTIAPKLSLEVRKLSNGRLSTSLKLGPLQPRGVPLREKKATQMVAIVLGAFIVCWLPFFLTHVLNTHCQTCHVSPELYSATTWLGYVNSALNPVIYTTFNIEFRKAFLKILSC

Row | Ki [1] | Ki(D2)*/Ki(D3)* [1] | Ki [2] | Compound
1 | 11 nM | 25 | 280 nM | C=CCN1CC[C@H](c2ccc(NS(=O)(=O)c3ccc(C4CC4(F)F)cc3)cc2)C1 (stereo partly drawn) [Example 90, N-[4-((R)-1-Allyl-pyrrolidin-3-yl)-phenyl]-4-(2,2-difluoro-cyclopropyl)benzenesulfonamide]
2 | 0.09 nM | 89 | 7.6 nM | CCCN1CC[C@@H](c2ccc(NS(=O)(=O)c3ccc(C(C)C)cc3)cc2)C1.Cl [Example 1, 4-Isopropyl-N-[4-((S)-1-propyl-pyrrolidin-3-yl)-phenyl]-benzenesulfonamide hydrochloride]
3 | 7.11 nM | 165 | 1170 nM | CCCN1CC(c2ccc(NS(=O)(=O)c3ccc(-c4cnco4)cc3)cc2)C1 [Example 55, 4-Oxazol-5-yl-N-[4-(1-propyl-azetidin-3-yl)-phenyl]-benzenesulfonamide]
4 | 0.28 nM | 42 | 11.7 nM | CCCc1ccc(S(=O)(=O)Nc2ccc([C@@H]3CCN(CCC)C3)cc2)cc1.Cl [Example 30, 4-Propyl-N-[4-((S)-1-propyl-pyrrolidin-3-yl)-phenyl]-benzenesulfonamide hydrochloride]
5 | 2 nM | 86 | 174 nM | CCCN1CC[C@@H](c2ccc(NS(=O)(=O)c3ccc(N4CCOCC4)cc3)cc2)C1.Cl [Example 120, 4-Morpholin-4-yl-N-[4-((S)-1-propyl-pyrrolidin-3-yl)-phenyl]-benzenesulfonamide hydrochloride]
6 | 24.4 nM | 109 | 2660 nM | CCCN1CC(c2ccc(NS(=O)(=O)c3ccc(CCF)cc3)cc2)C1 [Example 56, 4-(2-Fluoro-ethyl)-N-[4-(1-propyl-azetidin-3-yl)-phenyl]-benzenesulfonamide]
7 | 1.33 nM | 37 | 50 nM | CCCN1CC[C@@H](c2ccc(NS(=O)(=O)c3ccc(C(C)C(F)F)cc3)cc2)C1 (stereo partly drawn) [Example 77, 4-(2,2-Difluoro-1-methyl-ethyl)-N-[4-((S)-1-propyl-pyrrolidin-3-yl)-phenyl]-benzenesulfonamide]
8 | 7.4 nM | 35 | 258 nM | C[C@H](CF)c1ccc(S(=O)(=O)Nc2ccc([C@@H]3CCNC3)cc2)cc1 [Example 109, 4-((S)-2-Fluoro-1-methyl-ethyl)-N—((S)-4-pyrrolidin-3-yl-Phenyl)-benzenesulfonamide]
9 | 43.9 nM | 31 | 1340 nM | CCCN1CC[C@@H](c2ccc(NS(=O)(=O)c3ccc(O)cc3)cc2)C1 [Example 122, 4-Hydroxy-N-[4-((S)-1-propyl-pyrrolidin-3-yl)-phenyl]-benzenesulfonamide]
10 | 0.48 nM | 31 | 14.7 nM | CCCN1CC[C@@H](c2ccc(NS(=O)(=O)c3ccc([C@@H](C)CF)cc3)cc2)C1 [Example 93, 4-((R)-2-Fluoro-1-methyl-ethyl)-N-[4-((S)-1-propyl-pyrrolidin-3-yl)-phenyl]-benzenesulfonamide]
11 | 2.7 nM | 5 | 12.9 nM | CC(C)c1ccc(S(=O)(=O)Nc2ccc(C3CCN(Cc4ccccc4)C3)c(F)c2)cc1 (stereo not drawn) [Example 128, N-[4-(1-Benzyl-pyrrolidin-3-yl)-3-fluoro-phenyl]-4-isopropyl-benzenesulfonamide]

Continued, compound first:

Row | Compound | Ki [1] | Ki(D2)*/Ki(D3)* [1] | Ki [2]
12 | C=CCN1CC[C@H](c2ccc(NS(=O)(=O)c3ccc(C(C)C)cc3)cc2)C1.Cl [Example 4, 4-(Isopropyl)-N-[4-((R)-1-allyl-pyrrolidin-3-yl)-phenyl]-benzenesulfonamide hydrochloride] | 3.16 nM | 127 | 403 nM
13 | CCCN1CC[C@@H](c2ccc(NS(=O)(=O)c3ccc(C(C)C(F)(F)F)cc3)cc2)C1 (stereo partly drawn) [Example 78, N-[4-((S)-1-Propyl-pyrrolidin-3-yl)-phenyl]-4-(2,2,2-trifluoro-1-methyl-ethyl)benzenesulfonamide] | 1.4 nM | 30 | 41.9 nM
14 | N-[4-((S)-1-Propyl-pyrrolidin-3-yl)-phenyl]-4-pyrrol-1-yl-benzenesulfonamide [Example 74] | 0.69 nM | 15 | 10.5 nM
15 | CCCc1ccc(S(=O)(=O)Nc2ccc([C@@H]3CCN(CCC)C3)cc2)s1 [Example 89, 5-Propyl-thiophene-2-sulfonic acid [4-((S)-1-propyl-pyrrolidin-3-yl)-phenyl]-amide] | 0.6 nM | 45 | 27 nM
16 | CCCN1CC[C@@H](c2ccc(NS(=O)(=O)c3ccc(F)c(F)c3)cc2)C1.Cl [Example 126, 3,4-Difluoro-N-[4-((S)-1-propyl-pyrrolidin-3-yl)-phenyl]-benzenesulfonamide hydrochloride] | 34 nM | 30 | 1020 nM
17 | CCCN1CC[C@@H](c2ccc(NS(=O)(=O)c3ccc(Br)c(F)c3)cc2)C1 [Example 15, 4-Bromo-3-fluoro-N-[4-((S)-1-propyl-pyrrolidin-3-yl)-phenyl]-benzenesulfonamide] | 1.9 nM | 39 | 74 nM
18 | C=CCN1CC[C@@H](c2ccc(NS(=O)(=O)c3ccc(C(C)C)cc3)cc2)C1.Cl [Example 3, 4-(Isopropyl)-N-[4-((S)-1-allyl-pyrrolidin-3-yl)-phenyl]-benzenesulfonamide hydrochloride] | 0.17 nM | 91 | 13.8 nM
19 | CC(C)c1ccc(S(=O)(=O)Nc2ccc([C@@H]3CCN(C)C3)cc2)cc1 [Example 85, 4-Isopropyl-N-[4-((S)-1-methyl-pyrrolidin-3-yl)-phenyl]-benzenesulfonamide] | 0.57 nM | 32 | 18.5 nM
20 | CCCCOc1ccc(S(=O)(=O)Nc2ccc([C@@H]3CCN(CCC)C3)cc2)cc1 [Example 40, 4-Butyloxy-N-[4-((S)-1-propyl-pyrrolidin-3-yl)-phenyl]-benzenesulfonamide] | 0.46 nM | 40 | 18.2 nM
21 | CCCN1CC[C@@H](c2ccc(NS(=O)(=O)c3cc(F)c(Br)cc3F)cc2)C1 [Example 34] | 5.1 nM | 34 | 174 nM
22 | CCCN1CC[C@@H](c2ccc(NS(=O)(=O)c3ccc(C(C)C)cc3F)cc2)C1 [Example 21, 2-Fluoro-4-isopropyl-N-[4-((S)-1-propyl-pyrrolidin-3-yl)-phenyl]-benzenesulfonamide] | 0.4 nM | 27 | 11 nM
23 | CCCN1CC[C@@H](c2ccc(NS(=O)(=O)c3ccc(OC(F)(F)F)cc3)cc2)C1.Cl [Example 7, 4-Trifluoromethoxy-N-[4-((S)-1-propyl-pyrrolidin-3-yl)-phenyl]-benzenesulfonamide hydrochloride] | 3.5 nM | 61 | 212 nM
24 | CCCN1CC[C@@H](c2ccc(NS(=O)(=O)c3ccc([C@H](C)CF)cc3)cc2)C1 [Example 87, 4-((S)-2-Fluoro-1-methyl-ethyl)-N-[4-((S)-1-propyl-pyrrolidin-3-yl)-phenyl]-benzenesulfonamide] | 0.55 nM | 37 | 20.5 nM
25 | C=CCN1CC[C@@H](c2ccc(NS(=O)(=O)c3ccc([C@@H](C)CF)cc3)cc2)C1 [Example 113, N-[4-((S)-1-Allyl-pyrrolidin-3-yl)-phenyl]-4-((R)-2-fluoro-1-methyl-ethyl)benzenesulfonamide] | 0.49 nM | 86 | 42.2 nM
26 | CCCN1CC(c2ccc(NS(=O)(=O)c3ccc(OC(F)(F)F)cc3)cc2)C1 [Example 49, N-[4-(1-Propyl-azetidin-3-yl)-phenyl]-4-trifluoromethoxybenzene sulfonamide] | 46 nM | 39 | 1810 nM
27 | CCCN1CC(c2ccc(NS(=O)(=O)c3ccc(C(C)C(F)(F)F)cc3)cc2)C1 (stereo not drawn) [Example 63, N-[4-(1-Propyl-azetidin-3-yl)-phenyl]-4-(2,2,2-trifluoro-1-methyl-ethyl)benzenesulfonamide] | 5.75 nM | 113 | 647 nM

Reference: patent publication US8470810B2, “Heterocyclic compounds suitable for treating disorders that respond to modulation of the dopamine D3 receptor” (Abbott GmbH & Co. KG, priority 2004, dated 2013)
